Like-named read-outs stand apart in the source and are kept apart here.
Tests used:
[1] = target: T1, c-Met kinase domain recombinant protein (Homo sapiens, UniProt P08581); assay: biochemical; settings: for inhibition at 10 µM: read-out: Inhibition rate at 10 μM (%)
T1 construct: 50 μL diluted solution of c-Met kinase domain recombinant protein in reaction buffer was added to initiate the reaction
How it was run: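 Recombinant c-Met kinase domain phosphorylated immobilised Poly(Glu,Tyr)4:1 for 1 h at 37 °C in 50 mM HEPES pH 7.4, 50 mM MgCl2, 0.5 mM MnCl2, 0.2 mM Na3VO4, 1 mM DTT with ATP. Product measured by anti-phosphotyrosine PY99 ELISA (HRP, 490 nm), giving percent inhibition; ATP-free wells served as control.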

[2] = target: T1, c-Met kinase domain recombinant protein; assay: biochemical; settings: for inhibition at 0.1 µM: read-out: Average inhibition rate at 0.1 μM (%); for inhibition at 1 µM: read-out: Average inhibition rate at 1 μM (%); for inhibition at 10 µM: read-out: Average inhibition rate at 10 μM (%)
How it was run: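 IC50 came from a four-parameter fit of inhibition rates measured by anti-phosphotyrosine (PY99/HRP) ELISA at 490 nm. The reaction ran 1 hour at 37° C with 5 μM ATP, c-Met kinase domain protein and Poly(Glu,Tyr)4:1-coated wells, in HEPES pH 7.4 buffer containing MgCl2, MnCl2, Na3VO4 and DTT.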

BaF3/TPR-Met cell = assay: Test III: growth inhibition of engineered BaF3/TPR-Met cells (MTT); assay type: cell-based; settings: BaF3/TPR-Met, 72 hours; for inhibition at 0.2 µM / inhibition at 1 µM: Mus musculus; for inhibition at 0.2 µM: read-out: Cell proliferation inhibition rate at 200 nM (%), 200 nM; for inhibition at 1 µM: read-out: Cell proliferation inhibition rate at 1 μM (%)
Experimental: Assays on the growth inhibition of the compounds against engineered BaF3/TPR-Met cell (engineered cell line having TPR-Met fusion protein stably expressed in cytoplasm, persistently activated, Met dependent sensitive cell line; BaF3 cell was purchased from DSMZ, German) were detected using microculture tetrozolium (MTT) staining. A certain amount of BaF3/TPR-Met cells at log phase were inoculated into 96-well culture plate at 90 µL per well, incubated overnight and then 10 μL compound at various concentrations or vehicle control (normal saline) was added, each concentration was tested in triplicate. After incubation with compound for 72 hours, the incubation was terminated, MTT solution (5 mg/mL) was added at 20 μL per well, incubated at 37° C. for 4 hours, then 100 μL triplet solution (10% SDS−5% isobutanol−0.01M HCl) was added, incubated overnight at 37° C., OD value was measured at 570 nm. […] Experiments were conducted in duplicates.

T1 sequence (P08581 1078-1345 limits assumed): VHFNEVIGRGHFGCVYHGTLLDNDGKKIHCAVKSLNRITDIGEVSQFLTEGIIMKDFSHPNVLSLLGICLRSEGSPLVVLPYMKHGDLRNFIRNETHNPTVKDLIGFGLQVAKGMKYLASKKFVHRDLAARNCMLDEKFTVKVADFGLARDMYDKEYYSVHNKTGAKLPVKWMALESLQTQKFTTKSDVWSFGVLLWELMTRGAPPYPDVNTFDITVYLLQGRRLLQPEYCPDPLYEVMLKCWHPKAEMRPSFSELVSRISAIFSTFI

| Compound | inhibition at 10 µM [1] | inhibition at 0.1 µM [2] | inhibition at 1 µM [2] | inhibition at 10 µM [2] | inhibition at 0.2 µM (BaF3/TPR-Met cell) | inhibition at 1 µM (BaF3/TPR-Met cell; 1 μM) | Inhibition rate at 10 μM (%) ([1]; compound 10 μM, Table 1) | Average inhibition rate at 0.1 μM (%) ([2]; compound 0.1 μM) | Average inhibition rate at 1 μM (%) ([2]; compound 1 μM) | Average inhibition rate at 10 μM (%) ([2]; compound 10 μM, Table 2) | Cell proliferation inhibition rate at 1 μM (%) (BaF3/TPR-Met cell; 1 μM) |
| --- | --- | --- | --- | --- | --- | --- | --- | --- | --- | --- | --- |
| O=C(C1CCCCC1)N1CCC(n2cc(-c3cnc4cnn(S(=O)(=O)c5cnc6ccccn56)c4c3)cn2)CC1 [Example 57, 1-(imidazo[1,2-a]pyridine-3-sulfonyl)-6-{{1-[(1-cyclohexylcarbonyl)-4-piperidinyl]}-4-pyrazolyl}-1-H-pyrazolo[4,3-b]pyridine] | 60.8% | 52.4% | 54.5% | 60.3% | 86.8% | 89.5% | – | – | – | – | – |
| CC(C)N1CCC(n2cc(-c3cnc4cnn(S(=O)(=O)c5cnc6ccccn56)c4c3)cn2)CC1 [Example 59, 1-(imidazo[1,2-a]pyridine-3-sulfonyl)-6-{{1-[(1-isopropyl)-4-piperidinyl]}-4-pyrazolyl}-1-H-pyrazolo[4,3-b]pyridine] | 60.3% | 51.6% | 51.9% | 59.8% | 70.6% | 89.8% | – | – | – | – | – |
| O=S(=O)(c1cnc2ccccn12)n1ncc2ncc(-c3cnn(C4CCN(C5CCCC5)CC4)c3)cc21 [Example 60, 1-(imidazo[1,2-a]pyridine-3-sulfonyl)-6-{{1-[(1-cyclopentyl)-4-piperidinyl]}-4-pyrazolyl}-1-H-pyrazolo[4,3-b]pyridine] | 57.4% | 50.1% | 53.4% | 62.6% | 84.8% | 89.4% | – | – | – | – | – |
| CC(C)(C)OC(=O)N1CCC(n2cc(-c3cnc4cnn(S(=O)(=O)c5cnc6ccc(Cl)nn56)c4c3)cn2)CC1 [Example 61] | 59.8% | 73.7% | 76% | 83.2% | 83.1% | 91.7% | – | – | – | – | – |
| CC(C)(C)OC(=O)N1CCC(n2cc(-c3cnc4cnn(S(=O)(=O)c5cnc6ccc(C(F)(F)F)cn56)c4c3)cn2)CC1 [Example 63] | 83.2% | 59% | 60.4% | 63% | – | 66.5% | – | – | – | – | – |
| Cl.O=S(=O)(c1cnc2ccccn12)n1ncc2ncc(-c3cnn(C4CCNCC4)c3)cc21 [Example 66, 1-(imidazo[1,2-a]pyridine-3-sulfonyl)-6-{[1-(4-piperidinyl)]-4-pyrazolyl}-1-H-pyrazolo[4,3-b]pyridine chloride] | – | – | – | – | – | – | 63% | 73.3% | 75.8% | 79.9% | 92.7% |
| CC(C)(C)OC(=O)N1CCC(n2cc(-c3cnc4cnn(S(=O)(=O)c5cnc6ccc(Cl)cn56)c4c3)cn2)CC1 [Example 67] | 66% | 63.1% | 64.6% | 68.2% | 90.3% | 91.6% | – | – | – | – | – |

Source: US9988381B2, “Five-member-heterocycle fused pyridine compounds, method of producing the same, and use thereof” (SHANGHAI INSTITUTE OF MATERIA MEDICA, CHINESE ACADEMY OF …, priority 2013, dated 2018)
